How the values were obtained:
cyprinus carpio = experiment: Three-hour sedation of carp with 30 ppm linalool; format: in vivo
Experimental: Three cyprinus carpio of 140 g average weight, each in a tank of 20 L water at 25° C., were exposed to linalool, added to each tank in a formulation containing 20 wt. % linalool, 5 wt. % Alkamuls 14/R (a non-ionic surfactant added as an emulsifier), 70 wt. % propylene glycol and 5 wt. % ethanol to a linalool concentration of 30 ppm in the water. Specimens were observed every 30 minutes after addition of linalool. […] After removal to a tank of untreated water, each of the fish returned to their initial state within five minutes.

Koi fish = experiment: Anesthesia of Koi fish by linalool added to tank water; format: in vivo
Experimental: (§1) A one year old koi fish of body length 11 cm and which appeared to be healthy was placed in a 4 liter tank containing water at 25° C. and in which the water was circulated by means of aeration. A liquid a mixture containing 1 wt. % synthetic linalool (1 wt. % linalool, 5 wt. % 14R, 2 wt. % AF80 and 92 wt. % water) was added to the tank and manually mixed with the water so that the concentration of linalool in the water was 50 ppm. This was regarding as the starting time of the experiment; thereafter, observations were made regularly to determine the behavior of the fish in water. This continued until no response to external stimulation and complete loss of equilibrium were observed, at which point the fish was transferred to a recovery tank containing fresh water. The fish was placed near the air pump, and the time until the fish again swam and responded normally to external stimulation was recorded.
The experiment of Example 1 was repeated, using a one year old Koi fish of 12 cm body length, and adding the linalool formulation to a linalool concentration in the water of 75 ppm instead of 50 ppm. After 2 minutes of exposure to linalool the fish appeared to be in slight stress. […] At 20 minutes the fish was removed to a recovery tank with clean water. Thereafter it recovered slowly and after 40 minutes was swimming around in the tank and appeared to have resumed normal activity.
The experiment of Example 1 was repeated, using a one year old Koi fish of 12.5 cm body length, and adding the linalool formulation to a linalool concentration in the water of 100 ppm instead of 50 ppm. […] At 6 minutes the fish was removed to a recovery tank with clean water. Thereafter it recovered slowly and after 30 minutes was swimming around in the tank and appeared to have resumed normal activity.
To a four liter tank containing three one-year old Koi fish of respective weights 30 g, 29 g and 31 g and respective body lengths 11 cm, 12 cm and 12.5 cm in water at 21° C. and pH 7 was added a formulation containing 1% linalool. The formulation was added to the water to a linalool concentration of 50 ppm in the water. The fish became relaxed 6 minutes after addition of linalool and after 9 minutes were completely anesthetized. At 9 5 minutes the fish were removed to a recovery tank with fresh water. After 40 minutes in the recovery tank the fish resumed normal behavior.

goldfish = experiment: Anesthesia of goldfish by linalool or Ho Wood oil added to tank water; format: in vivo, Carassius auratus auratus
Experimental: as §1
The experiment of Example 1 was repeated, using a one year old goldfish of 8.5 cm body length. […] At 9.5 minutes the fish was removed to a recovery tank with clean water. Thereafter it recovered slowly and after 35 minutes was swimming around in the tank and appeared to have resumed normal activity.
The experiment of Example 1 was repeated, using a one year old goldfish of 8.5 cm body length, and adding the linalool formulation to a linalool concentration in the water of 75 ppm instead of 50 ppm. After 2 minutes of exposure to linalool the fish appeared to be in stress. […] At 20 minutes the fish was removed to a recovery tank with clean water. Thereafter it recovered slowly and after 35 minutes was swimming around in the tank and appeared to have resumed normal activity. […]
This example illustrates the effects of Linalool on Goldfish (cold water fish). The experiment was performed in a four liter tank with three 10-month old goldfish of respective weights 32 g, 30 g and 34 g and respective body lengths of 12.5 cm, 11.5 cm and 11 cm. The water temperature was 16° C. and the pH was 7. A formulation containing 1% Linalool was added to the water to a concentration of 50 ppm linalool in the water. The fish became relaxed 5 minutes after introduction of the linalool, and after 6 5 minutes there fish were completely anesthetized. After 20 minutes of exposure to linalool, the fish were removed to a recovery tank with fresh water. 15 minutes thereafter the fish had resumed normal behavior. […]
The experiment of Example 1 was repeated, using two one-year old goldfish of respective body lengths 8.5 and 7.5 cm and respective weights of 17 and 15 g, and adding the a natural source of linalool (Ho Wood oil) to a concentration of 75 ppm linalool instead of 50 ppm. […] At 4 minutes the fish were removed to a recovery tank with clean water. After 5 minutes in the recovery tank they swam around and appeared to have resumed normal activity.
The experiment of Example 21 was repeated, using two one-year old goldfish of respective body lengths 9 and 8 cm and respective weights 19 and 17.5 g, but adding Ho Wood oil to a linalool concentration of 50 ppm in the water. […] At 16.5 minutes the fish were removed to a recovery tank with clean water. After 4 minutes in the recovery tank they swam around and appeared to have resumed normal activity.

[1] = Example 1: Koi 11 cm, 50 ppm linalool in water, 25° C.
[2] = Example 2: Koi 12 cm, 75 ppm linalool in water
[3] = Example 3: Koi 12.5 cm, 100 ppm linalool in water
[4] = Example 18: three Koi 29-31 g, 50 ppm linalool, 21° C., pH 7
[5] = Example 4: goldfish 8.5 cm, 50 ppm linalool in water
[6] = Example 5: goldfish 8.5 cm, 75 ppm linalool in water
[7] = Example 6: goldfish 8 cm, 100 ppm linalool in water
[8] = Example 11: three goldfish 25-27.5 g, 100 ppm linalool

C=CC(C)(O)CCC=C(C)C (stereo not drawn) [linalool]
time in untreated water until return to initial state (cyprinus carpio; Example 28: carp 140 g, after three-hour exposure): five
handling state of the fish (cyprinus carpio; Example 28: three carp 140 g, 25° C., at 30 minutes after exposure and for the duration of the three-hour exposure): easy to handle
time of exposure until complete loss of equilibrium (Koi fish; [1]): 6.5 min
time of exposure until fish swam on its back (Koi fish; [1]): 8 min
time of exposure until no response to external stimulation (Koi fish; [1]): 9 min
time of exposure until partial loss of equilibrium (Koi fish; [1]): 5.5 min
time of exposure until slight stress (Koi fish; [1]): 2.5 min
time in recovery tank until normal activity resumed (Koi fish; Example 1: Koi 11 cm, 50 ppm linalool, removed to clean water at 9.5 minutes): 45 min
time of exposure until complete loss of equilibrium (Koi fish; [2]): 7 min
time of exposure until no response to external stimulation (Koi fish; [2]): 9 min
time of exposure until slight stress (Koi fish; [2]): 2 min
time in recovery tank until normal activity resumed (Koi fish; Example 2: Koi 12 cm, 75 ppm linalool, removed to clean water at 20 minutes): 40 min
time of exposure until complete loss of equilibrium (Koi fish; [3]): 4 min
time of exposure until no response to external stimulation (Koi fish; [3]): 5.5 min
time of exposure until partial loss of equilibrium (Koi fish; [3]): 2.5 min
time in recovery tank until normal activity resumed (Koi fish; Example 3: Koi 12.5 cm, 100 ppm linalool, removed to clean water at 6 minutes): 30 min
time in recovery tank until normal behavior resumed (Koi fish; Example 18: Koi, 50 ppm linalool, 21° C., removed at 9 5 minutes): 40 min
time after addition of linalool until fish became relaxed (Koi fish; [4]): 6 min
time until fish completely anesthetized (Koi fish; [4]): 9 min
time of exposure until complete loss of equilibrium (goldfish; [5]): 6.5 min
time of exposure until no response to external stimulation (goldfish; [5]): 9 min
time of exposure until partial loss of equilibrium (goldfish; [5]): 5 min
time in recovery tank until normal activity resumed (goldfish; Example 4: goldfish 8.5 cm, 50 ppm linalool, removed to clean water at 9.5 minutes): 35 min
time of exposure until complete loss of equilibrium (goldfish; [6]): 5 min
time of exposure until no response to external stimulation (goldfish; [6]): 9 min
time of exposure until partial loss of equilibrium (goldfish; [6]): 2.5 min
time in recovery tank until normal activity resumed (goldfish; Example 5: goldfish 8.5 cm, 75 ppm linalool, removed to clean water at 20 minutes): 35 min
time of exposure until complete loss of equilibrium (goldfish; [7]): 2 min
time of exposure until no response to external stimulation (goldfish; [7]): 3.5 min
time of exposure until partial loss of equilibrium (goldfish; [7]): 1.5 min
time in recovery tank until normal activity resumed (goldfish; Example 6: goldfish 8 cm, 100 ppm linalool, removed to clean water at 4 minutes): 35 min
mortality during a further three days of observation (goldfish; Example 7: three goldfish, average 12.5 cm, experiment of Example 1 repeated): no mortality occurred
time in recovery tank until normal behavior resumed (goldfish; Example 9: goldfish, 50 ppm linalool, 16° C., removed after 20 minutes of exposure): 15 min
time after introduction of linalool until fish became relaxed (goldfish; Example 9: three goldfish 30-34 g, 50 ppm linalool, 16° C., pH 7): 5 min
time in recovery tank until normal behavior resumed (goldfish; Example 10: goldfish, 75 ppm linalool, 16° C., removed at 20 minutes): 35 min
time until fish completely anesthetized (goldfish; Example 10: three goldfish 25-27 g, 75 ppm linalool, 16° C., pH 7): 5 min
time in recovery tank until normal behavior resumed (goldfish; Example 11: goldfish, 100 ppm linalool, removed at 4 minutes): 20 min
time after addition of linalool until fish became relaxed (goldfish; [8]): 1.5 min
time until fish completely anesthetized (goldfish; [8]): 2 min

Source: patent US20140259191A1, “FISH ANESTHETIC AND METHOD” (AQUA-MOR TECHNOLOGIES LTD., priority 2011, published 2014)
